# Test results reported in publication PMC6430017, “Structural and chemical insights into the covalent-allosteric inhibition of the protein kinase Akt” (Chemical Science, 2019).
# Columns and labels:
# Assay in all cases: SelectScreen Z'LYTE kinase profiling
# Type in all cases: biochemical
# Conditions in all cases: ATP at apparent KM
# GRK7 = target: T1, GRK7 (Homo sapiens, UniProt Q8WTQ7)
# T1 sequence (Q8WTQ7 1-553): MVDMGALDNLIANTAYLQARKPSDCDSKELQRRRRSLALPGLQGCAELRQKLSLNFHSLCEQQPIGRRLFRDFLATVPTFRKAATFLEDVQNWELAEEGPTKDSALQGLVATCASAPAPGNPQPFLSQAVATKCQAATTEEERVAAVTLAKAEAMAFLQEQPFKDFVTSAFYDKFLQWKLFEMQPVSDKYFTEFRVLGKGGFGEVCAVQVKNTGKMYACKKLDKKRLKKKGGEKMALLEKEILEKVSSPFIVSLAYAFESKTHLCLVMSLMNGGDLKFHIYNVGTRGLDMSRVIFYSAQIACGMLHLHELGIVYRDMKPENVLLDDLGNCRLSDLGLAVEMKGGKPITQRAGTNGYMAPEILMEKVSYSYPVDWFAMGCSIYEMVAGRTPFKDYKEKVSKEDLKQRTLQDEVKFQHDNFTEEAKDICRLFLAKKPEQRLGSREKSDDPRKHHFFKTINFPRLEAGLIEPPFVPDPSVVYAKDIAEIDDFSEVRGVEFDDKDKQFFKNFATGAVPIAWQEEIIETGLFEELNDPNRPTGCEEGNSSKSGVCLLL
# Experimental: (§1) protein kinases at a compound concentration of 1 µM. Measurements were performed in duplicates
# (§2) and at the particular apparent ATP KM of each individual kinase employing the activity based Z’LYTE®
# (§3) kinase assay of the SelectScreen® Kinase Profiling Services (ThermoFisher Scientific).
# (§4) kinases at a compound concentration of 1 µM. Measurements were performed in duplicates and at
# (§5) the particular apparent ATP KM of each individual kinase employing the activity based Z’LYTE® kinase
# (§6) assay of the SelectScreen® Kinase Profiling Services (ThermoFisher Scientific).
# ALK = ALK (Homo sapiens, UniProt Q9UM73)
# Experimental: as §1, §2, §3, §4, §5, §6
# RPS6KB1 (p70S6K) = RPS6KB1 (p70S6K) (Homo sapiens, UniProt P23443)
# SGK (SGK1) = target: T2, SGK (SGK1) (Homo sapiens, UniProt O00141)
# T2 sequence (O00141 1-431): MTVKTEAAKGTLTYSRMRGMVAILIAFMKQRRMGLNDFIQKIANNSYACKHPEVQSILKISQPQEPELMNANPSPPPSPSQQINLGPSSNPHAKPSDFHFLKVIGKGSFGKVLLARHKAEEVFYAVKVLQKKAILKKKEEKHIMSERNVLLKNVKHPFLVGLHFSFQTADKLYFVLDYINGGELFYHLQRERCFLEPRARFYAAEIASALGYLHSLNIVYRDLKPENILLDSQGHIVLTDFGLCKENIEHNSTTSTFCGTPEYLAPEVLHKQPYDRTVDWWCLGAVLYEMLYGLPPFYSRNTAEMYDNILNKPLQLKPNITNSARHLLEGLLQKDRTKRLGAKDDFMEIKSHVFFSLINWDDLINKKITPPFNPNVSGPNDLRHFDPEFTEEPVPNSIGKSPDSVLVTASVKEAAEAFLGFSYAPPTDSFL
# Experimental: as §1, §2, §3, §4, §5, §6
# PRKACA (PKA) = PRKACA (PKA) (Homo sapiens, UniProt P17612)
# Experimental: as §1, §2, §3, §4, §5, §6
# MAPK1 (ERK2) = MAPK1 (ERK2) (Homo sapiens, UniProt P28482)
# Experimental: as §1, §2, §3, §4, §5, §6
# SGK2 = target: T3, SGK2 (Homo sapiens, UniProt Q9HBY8)
# T3 sequence (Q9HBY8 1-367): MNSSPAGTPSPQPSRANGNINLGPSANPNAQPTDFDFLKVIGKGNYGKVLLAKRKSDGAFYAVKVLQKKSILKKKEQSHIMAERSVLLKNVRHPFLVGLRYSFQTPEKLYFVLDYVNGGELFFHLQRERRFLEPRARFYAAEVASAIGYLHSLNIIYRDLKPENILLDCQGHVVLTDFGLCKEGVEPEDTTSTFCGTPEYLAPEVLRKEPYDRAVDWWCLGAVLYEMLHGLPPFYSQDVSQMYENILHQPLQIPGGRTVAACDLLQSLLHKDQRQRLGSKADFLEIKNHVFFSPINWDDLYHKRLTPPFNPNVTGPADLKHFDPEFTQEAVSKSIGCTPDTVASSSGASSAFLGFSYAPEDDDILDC
# Experimental: as §1, §2, §3, §4, §5, §6
# EPHA2 = EPHA2 (Homo sapiens, UniProt P29317)
# Experimental: as §1, §2, §3, §4, §5, §6
# ROCK1 = ROCK1 (Homo sapiens, UniProt Q13464)
# Experimental: as §1, §2, §3, §4, §5, §6
# PKN1 (PRK1) = PKN1 (PRK1) (Homo sapiens, UniProt Q16512)
# Experimental: as §1, §2, §3, §4, §5, §6
# SYK = SYK (Homo sapiens, UniProt P43405)
# Experimental: as §1, §2, §3, §4, §5, §6
# PDGFRA (PDGFR alpha) = PDGFRA (PDGFR alpha) (Homo sapiens, UniProt P16234)
# Experimental: as §1, §2, §3, §4, §5, §6
# ACVR1B (ALK4) = target: T4, ACVR1B (ALK4) (Homo sapiens, UniProt P36896)
# T4 sequence (P36896 24-505): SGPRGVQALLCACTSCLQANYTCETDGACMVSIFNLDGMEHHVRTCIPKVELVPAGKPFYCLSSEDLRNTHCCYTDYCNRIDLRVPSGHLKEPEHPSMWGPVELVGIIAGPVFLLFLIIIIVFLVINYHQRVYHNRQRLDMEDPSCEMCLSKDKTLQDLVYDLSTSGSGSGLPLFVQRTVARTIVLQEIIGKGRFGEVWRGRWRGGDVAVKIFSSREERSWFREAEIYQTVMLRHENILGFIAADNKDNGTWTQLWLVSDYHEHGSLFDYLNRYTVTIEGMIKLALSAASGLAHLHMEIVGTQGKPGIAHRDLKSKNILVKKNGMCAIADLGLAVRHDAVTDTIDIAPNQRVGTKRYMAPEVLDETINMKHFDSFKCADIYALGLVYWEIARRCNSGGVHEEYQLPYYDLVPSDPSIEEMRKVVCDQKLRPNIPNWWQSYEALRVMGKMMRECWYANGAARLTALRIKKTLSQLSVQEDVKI
# Experimental: as §1, §2, §3, §4, §5, §6
# AURKA (Aurora A) = target: T5, AURKA (Aurora A) (Homo sapiens, UniProt O14965)
# T5 sequence (O14965 1-403): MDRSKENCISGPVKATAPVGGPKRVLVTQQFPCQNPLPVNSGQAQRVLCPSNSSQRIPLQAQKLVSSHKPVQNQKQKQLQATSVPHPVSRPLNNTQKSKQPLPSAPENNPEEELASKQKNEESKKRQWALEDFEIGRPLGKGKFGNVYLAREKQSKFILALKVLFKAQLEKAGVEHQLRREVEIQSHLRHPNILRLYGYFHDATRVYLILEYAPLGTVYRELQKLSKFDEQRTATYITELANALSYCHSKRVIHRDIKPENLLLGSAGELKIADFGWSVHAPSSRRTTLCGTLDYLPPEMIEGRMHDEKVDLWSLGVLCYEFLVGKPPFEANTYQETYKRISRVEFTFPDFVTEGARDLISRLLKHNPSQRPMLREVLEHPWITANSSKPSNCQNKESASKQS
# Experimental: as §1, §2, §3, §4, §5, §6
# Chain of RPS6KB1 (p70S6K) (P23443 whole entry): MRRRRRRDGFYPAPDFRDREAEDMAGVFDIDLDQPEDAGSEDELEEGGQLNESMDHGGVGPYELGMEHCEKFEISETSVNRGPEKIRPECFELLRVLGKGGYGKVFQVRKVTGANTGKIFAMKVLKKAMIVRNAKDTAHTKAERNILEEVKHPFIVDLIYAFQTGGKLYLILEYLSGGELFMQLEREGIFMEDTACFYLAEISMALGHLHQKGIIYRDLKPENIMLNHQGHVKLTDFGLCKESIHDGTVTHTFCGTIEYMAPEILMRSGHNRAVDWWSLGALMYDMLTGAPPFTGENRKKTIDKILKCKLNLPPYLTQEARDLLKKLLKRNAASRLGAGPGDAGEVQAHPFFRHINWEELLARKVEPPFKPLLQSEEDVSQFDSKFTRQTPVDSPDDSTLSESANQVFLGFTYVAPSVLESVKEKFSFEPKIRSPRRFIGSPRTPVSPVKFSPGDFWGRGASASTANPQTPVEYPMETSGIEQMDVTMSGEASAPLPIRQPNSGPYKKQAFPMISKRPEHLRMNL
# Chain of EPHA2 (P29317 24-976): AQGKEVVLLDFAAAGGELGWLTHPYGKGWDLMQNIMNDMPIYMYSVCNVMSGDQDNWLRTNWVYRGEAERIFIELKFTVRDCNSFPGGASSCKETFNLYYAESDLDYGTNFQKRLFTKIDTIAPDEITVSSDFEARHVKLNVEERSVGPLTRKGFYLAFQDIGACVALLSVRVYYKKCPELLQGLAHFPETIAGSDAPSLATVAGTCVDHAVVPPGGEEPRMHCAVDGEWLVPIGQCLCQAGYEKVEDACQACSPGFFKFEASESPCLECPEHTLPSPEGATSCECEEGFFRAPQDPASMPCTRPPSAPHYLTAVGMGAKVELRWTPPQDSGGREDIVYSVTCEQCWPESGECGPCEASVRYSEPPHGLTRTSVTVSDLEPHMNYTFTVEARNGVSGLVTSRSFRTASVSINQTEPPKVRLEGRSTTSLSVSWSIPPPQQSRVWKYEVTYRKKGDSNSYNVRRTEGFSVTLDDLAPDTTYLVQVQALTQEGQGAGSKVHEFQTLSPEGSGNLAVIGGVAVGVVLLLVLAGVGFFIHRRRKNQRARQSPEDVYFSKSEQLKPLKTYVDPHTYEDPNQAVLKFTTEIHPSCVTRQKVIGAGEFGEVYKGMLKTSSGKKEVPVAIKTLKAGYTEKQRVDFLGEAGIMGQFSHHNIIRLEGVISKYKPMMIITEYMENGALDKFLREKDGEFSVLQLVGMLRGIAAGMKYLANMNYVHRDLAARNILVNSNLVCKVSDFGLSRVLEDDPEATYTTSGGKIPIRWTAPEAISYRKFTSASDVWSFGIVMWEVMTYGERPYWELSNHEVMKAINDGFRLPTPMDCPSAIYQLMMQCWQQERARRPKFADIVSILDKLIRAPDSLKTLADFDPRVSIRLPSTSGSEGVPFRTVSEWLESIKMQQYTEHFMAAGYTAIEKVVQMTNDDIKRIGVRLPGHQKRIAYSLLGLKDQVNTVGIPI
# Chain of MAPK1 (ERK2) (P28482 whole entry): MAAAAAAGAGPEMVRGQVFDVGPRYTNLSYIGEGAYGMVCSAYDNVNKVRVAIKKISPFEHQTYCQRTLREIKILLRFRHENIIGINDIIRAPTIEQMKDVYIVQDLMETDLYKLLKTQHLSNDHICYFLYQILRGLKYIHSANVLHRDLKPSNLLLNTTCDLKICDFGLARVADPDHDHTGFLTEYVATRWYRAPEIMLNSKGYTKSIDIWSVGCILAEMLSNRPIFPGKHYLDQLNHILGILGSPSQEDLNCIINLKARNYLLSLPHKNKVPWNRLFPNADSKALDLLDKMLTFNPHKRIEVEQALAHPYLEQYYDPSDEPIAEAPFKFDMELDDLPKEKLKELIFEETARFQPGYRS
# Chain of ALK (Q9UM73 19-1620): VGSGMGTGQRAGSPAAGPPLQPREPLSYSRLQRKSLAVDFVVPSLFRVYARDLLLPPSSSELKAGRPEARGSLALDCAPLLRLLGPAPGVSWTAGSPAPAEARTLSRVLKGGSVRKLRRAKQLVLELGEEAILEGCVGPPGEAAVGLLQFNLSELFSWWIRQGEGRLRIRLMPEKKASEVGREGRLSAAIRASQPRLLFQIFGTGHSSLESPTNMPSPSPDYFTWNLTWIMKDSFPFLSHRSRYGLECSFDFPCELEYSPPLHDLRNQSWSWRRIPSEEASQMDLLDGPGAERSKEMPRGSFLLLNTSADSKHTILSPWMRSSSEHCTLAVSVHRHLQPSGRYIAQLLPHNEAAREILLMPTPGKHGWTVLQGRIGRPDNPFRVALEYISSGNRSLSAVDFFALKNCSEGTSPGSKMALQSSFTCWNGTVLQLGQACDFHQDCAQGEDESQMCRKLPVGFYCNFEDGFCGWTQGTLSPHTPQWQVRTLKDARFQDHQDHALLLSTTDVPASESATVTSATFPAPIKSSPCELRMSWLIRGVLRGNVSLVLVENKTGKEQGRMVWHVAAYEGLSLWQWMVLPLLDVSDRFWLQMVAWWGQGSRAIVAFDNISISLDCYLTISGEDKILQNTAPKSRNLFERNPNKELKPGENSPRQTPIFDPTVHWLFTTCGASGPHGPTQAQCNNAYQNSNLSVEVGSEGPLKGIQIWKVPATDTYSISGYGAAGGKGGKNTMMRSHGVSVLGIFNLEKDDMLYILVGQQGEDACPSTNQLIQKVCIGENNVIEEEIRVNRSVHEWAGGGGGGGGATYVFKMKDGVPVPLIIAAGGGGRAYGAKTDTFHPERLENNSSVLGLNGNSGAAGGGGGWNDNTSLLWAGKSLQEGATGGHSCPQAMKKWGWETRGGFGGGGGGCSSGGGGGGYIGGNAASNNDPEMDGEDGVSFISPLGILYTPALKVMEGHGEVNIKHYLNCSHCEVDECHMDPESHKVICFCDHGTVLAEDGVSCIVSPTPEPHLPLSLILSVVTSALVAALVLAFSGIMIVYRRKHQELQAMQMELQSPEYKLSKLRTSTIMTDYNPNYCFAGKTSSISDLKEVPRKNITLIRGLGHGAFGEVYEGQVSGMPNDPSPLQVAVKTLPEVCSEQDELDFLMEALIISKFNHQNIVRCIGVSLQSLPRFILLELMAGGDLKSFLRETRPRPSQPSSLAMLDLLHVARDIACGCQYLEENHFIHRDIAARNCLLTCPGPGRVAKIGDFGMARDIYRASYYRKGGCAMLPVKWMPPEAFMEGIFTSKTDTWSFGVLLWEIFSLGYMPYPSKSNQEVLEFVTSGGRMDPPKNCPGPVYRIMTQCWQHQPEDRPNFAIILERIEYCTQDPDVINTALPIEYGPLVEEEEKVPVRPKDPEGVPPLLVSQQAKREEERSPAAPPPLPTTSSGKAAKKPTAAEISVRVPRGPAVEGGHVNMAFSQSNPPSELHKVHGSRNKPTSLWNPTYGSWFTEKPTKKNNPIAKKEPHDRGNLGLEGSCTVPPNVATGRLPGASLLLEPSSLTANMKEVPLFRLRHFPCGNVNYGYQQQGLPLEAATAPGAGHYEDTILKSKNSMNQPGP
# Chain of PDGFRA (PDGFR alpha) (P16234 24-1089): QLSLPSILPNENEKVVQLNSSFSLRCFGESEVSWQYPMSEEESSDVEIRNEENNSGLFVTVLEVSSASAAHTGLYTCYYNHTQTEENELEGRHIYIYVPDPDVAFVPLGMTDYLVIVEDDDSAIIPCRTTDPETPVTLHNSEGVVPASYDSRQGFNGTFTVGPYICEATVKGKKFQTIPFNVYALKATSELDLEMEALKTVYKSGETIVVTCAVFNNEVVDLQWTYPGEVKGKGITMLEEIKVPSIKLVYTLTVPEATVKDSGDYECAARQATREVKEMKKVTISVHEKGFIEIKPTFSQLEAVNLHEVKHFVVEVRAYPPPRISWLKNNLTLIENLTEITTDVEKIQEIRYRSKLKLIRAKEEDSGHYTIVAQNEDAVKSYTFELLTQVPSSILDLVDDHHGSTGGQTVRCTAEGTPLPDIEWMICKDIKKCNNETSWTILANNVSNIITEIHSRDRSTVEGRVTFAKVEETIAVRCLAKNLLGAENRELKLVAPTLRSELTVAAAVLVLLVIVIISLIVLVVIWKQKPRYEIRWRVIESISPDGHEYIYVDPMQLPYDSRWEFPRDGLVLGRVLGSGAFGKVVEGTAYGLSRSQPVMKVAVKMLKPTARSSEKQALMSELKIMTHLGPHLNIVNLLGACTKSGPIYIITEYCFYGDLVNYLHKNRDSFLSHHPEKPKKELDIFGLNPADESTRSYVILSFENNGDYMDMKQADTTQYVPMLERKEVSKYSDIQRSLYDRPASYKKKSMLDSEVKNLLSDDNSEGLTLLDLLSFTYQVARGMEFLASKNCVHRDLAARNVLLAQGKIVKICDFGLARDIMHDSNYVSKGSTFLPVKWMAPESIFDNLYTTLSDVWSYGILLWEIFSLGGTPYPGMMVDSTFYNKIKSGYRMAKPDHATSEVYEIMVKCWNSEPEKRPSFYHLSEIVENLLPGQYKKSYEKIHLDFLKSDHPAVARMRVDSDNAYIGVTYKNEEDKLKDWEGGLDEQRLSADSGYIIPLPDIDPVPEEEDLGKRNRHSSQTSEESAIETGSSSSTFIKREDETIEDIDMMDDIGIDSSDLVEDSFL
Compound,inhibition at 1 µM (GRK7) [%],inhibition at 1 µM (ALK) [%],inhibition at 1 µM (RPS6KB1 (p70S6K)) [%],inhibition at 1 µM (SGK (SGK1)) [%],inhibition at 1 µM (PRKACA (PKA)) [%],inhibition at 1 µM (MAPK1 (ERK2)) [%],inhibition at 1 µM (SGK2) [%],inhibition at 1 µM (EPHA2) [%],inhibition at 1 µM (ROCK1) [%],inhibition at 1 µM (PKN1 (PRK1)) [%],inhibition at 1 µM (SYK) [%],inhibition at 1 µM (PDGFRA (PDGFR alpha)) [%],inhibition at 1 µM (ACVR1B (ALK4)) [%],inhibition at 1 µM (AURKA (Aurora A)) [%]
C=CC(=O)Nc1cc(NC(=O)NC2CCN(Cc3ccc(-c4nc5cc[nH]c(=O)c5cc4-c4ccccc4)cc3)CC2)ccc1Cl [compound 27],5,2,29,21,-4,11,4,-3,54,6,5,0,-8,10
C=CC(=O)Nc1cccc(C(=O)NC2CCN(Cc3ccc(-c4nc5cc[nH]c(=O)c5cc4-c4ccccc4)cc3)CC2)c1 [30b],5,1,8,29,10,13,3,4,34,1,15,-7,0,22
C=CC(=O)Nc1ccc2c(c1)n(C1CCN(Cc3ccc(-c4nc5cc[nH]c(=O)c5cc4-c4ccccc4)cc3)CC1)c(=O)n2C [24b],-4,-3,32,19,2,2,-1,-6,16,-1,4,-5,-1,7
